From patent US9028860B2, “Partially microcellular, selectively hydrophilic composite construct for ocular drug delivery” (Poly-Med, Inc., priority 2010, dated 2015)

Assay: Drug delivery profile: diffusion of loaded drug from foam-film composite to wetted receptor foam piece, HPLC
Type: physicochemical
Details: 1x1 cm composite loaded with 100 μL of 261.5 mg/mL solution; on wetted 2x2 cm foam piece; 10 minutes, 37° C.
Procedure: • A foam-film composite made using the process outlined in example 3 was used to evaluate the drug delivery profile of said composite after drug loading. This was done by loading a dry 1×1 cm piece of the composite foam-film with 100 μL of our 261.5 mg/mL solution of dexamethasone disodium phosphate in nanopure water. This piece was then placed on top of a wetted 2×2 cm piece without the flexible film. These two pieces were left in contact for a period of 10 minutes at 37° C. After […] the pieces were separated and the receptor (bottom) piece was placed into a vial. At this point 5 mL of water was added to the vial and the piece was shaken in this new volume of water for 10 minutes. The aqueous layer was then filtered through a 0.45 μm filter and run on a reverse phase HPLC. Using a C18 column and a 12 minute gradient method of water and acetonitrile, it was determined that about 12 mg or about 45% of the loaded DSP diffused to the receptor (bottom) piece.

With `C[C@@H]1C[C@H]2[C@@H]3CCC4=CC(=O)C=C[C@]4(C)[C@@]3(F)[C@@H](O)C[C@]2(C)[C@@]1(O)C(=O)COP(=O)([O-])[O-].[Na+].[Na+]` [DSP, dexamethasone disodium phosphate] the “amount of DSP diffused to the receptor (bottom) piece” value was “about 12 mg” and the “percent of the loaded DSP diffused to the receptor (bottom) piece” value was “about 45%”.
